According to ChEMBL document CHEMBL4014351, “Discovery of Allosteric Inhibitors Targeting the Spliceosomal RNA Helicase Brr2” (J Med Chem, 2017):
≈ marks a conversion by molar mass, not a printed value.

Legend:
[1] = molecular target: T1, U5 small nuclear ribonucleoprotein 200 kDa helicase (Homo sapiens, UniProt O75643); experiment: biochemical
Description: Inhibition of full length recombinant human N-terminal His-tagged BRR2 RNA dependent ATPase activity expressed in baculovirus infected Sf9 cells using single stranded poly(U) RNA as substrate after 30 mins by ADP-Glo luminescence assay

[2] = molecular target: T2, ATP-dependent RNA helicase DHX29 (Homo sapiens, UniProt Q7Z478); experiment: biochemical
T2 sequence (Q7Z478 whole entry): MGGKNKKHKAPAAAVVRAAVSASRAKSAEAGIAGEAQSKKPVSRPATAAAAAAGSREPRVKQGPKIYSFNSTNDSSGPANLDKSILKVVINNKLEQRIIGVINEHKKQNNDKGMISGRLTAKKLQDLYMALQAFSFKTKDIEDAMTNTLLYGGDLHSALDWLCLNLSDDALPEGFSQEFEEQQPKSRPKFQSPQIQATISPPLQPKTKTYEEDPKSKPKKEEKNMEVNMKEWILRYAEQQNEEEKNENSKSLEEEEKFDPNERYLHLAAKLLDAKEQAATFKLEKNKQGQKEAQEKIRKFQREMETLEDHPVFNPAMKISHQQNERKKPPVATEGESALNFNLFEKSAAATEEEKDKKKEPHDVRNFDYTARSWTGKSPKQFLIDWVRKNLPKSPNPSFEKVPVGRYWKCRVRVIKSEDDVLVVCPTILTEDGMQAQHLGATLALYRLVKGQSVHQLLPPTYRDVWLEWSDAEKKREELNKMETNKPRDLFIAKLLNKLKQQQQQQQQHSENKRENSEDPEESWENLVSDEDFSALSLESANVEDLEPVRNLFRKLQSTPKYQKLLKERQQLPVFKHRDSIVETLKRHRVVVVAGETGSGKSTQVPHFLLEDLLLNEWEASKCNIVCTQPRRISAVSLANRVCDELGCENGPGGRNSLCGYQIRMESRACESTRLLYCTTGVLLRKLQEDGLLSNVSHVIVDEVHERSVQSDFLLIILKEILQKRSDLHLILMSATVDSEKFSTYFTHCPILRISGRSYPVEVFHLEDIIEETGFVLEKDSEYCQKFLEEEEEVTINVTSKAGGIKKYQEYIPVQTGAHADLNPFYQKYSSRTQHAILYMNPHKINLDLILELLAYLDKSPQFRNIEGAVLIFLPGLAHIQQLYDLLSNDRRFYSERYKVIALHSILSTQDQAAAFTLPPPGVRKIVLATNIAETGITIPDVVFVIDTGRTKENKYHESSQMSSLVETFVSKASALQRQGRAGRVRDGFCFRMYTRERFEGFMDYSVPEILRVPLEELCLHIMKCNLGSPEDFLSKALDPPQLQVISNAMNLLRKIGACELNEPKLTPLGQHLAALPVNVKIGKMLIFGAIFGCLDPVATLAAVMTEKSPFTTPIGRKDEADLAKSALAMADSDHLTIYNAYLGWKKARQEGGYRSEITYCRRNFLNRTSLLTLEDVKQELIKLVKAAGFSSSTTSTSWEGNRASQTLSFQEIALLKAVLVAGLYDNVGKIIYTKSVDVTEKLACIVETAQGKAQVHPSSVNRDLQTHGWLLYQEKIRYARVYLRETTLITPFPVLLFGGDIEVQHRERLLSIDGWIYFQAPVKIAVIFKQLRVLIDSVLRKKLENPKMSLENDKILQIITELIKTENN
Description: Inhibition of full length recombinant human N-terminal FLAG-His-tagged DHX29 RNA dependent ATPase activity expressed in baculovirus infected Sf9 insect cells using single stranded poly(U) RNA as substrate after 30 mins by ADP-Glo luminescence assay

[3] = molecular target: Eukaryotic initiation factor 4A-I (Homo sapiens, UniProt P60842)
Description: Inhibition of eIF4G-induced full length recombinant human N-terminal His6/SUMO-tagged eIF4A1 RNA dependent ATPase activity expressed in Escherichia coli BL21(DE3) using single stranded poly(U) RNA as substrate after 30 mins by ADP-Glo luminescence assay

[4] = molecular target: Eukaryotic initiation factor 4A-III (Homo sapiens, UniProt P38919)
Description: Inhibition of MLN51-induced full length recombinant human N-terminal His6/SUMO-tagged eIF4A3 RNA dependent ATPase activity expressed in Escherichia coli BL21(DE3) using single stranded poly(U) RNA as substrate after 30 mins by ADP-Glo luminescence assay

physchem [5] = conditions: 1-octanol/aqueous buffer, pH 7.4
physchem [6] = conditions: aqueous buffer, pH 6.8
Description: Solubility of the compound in pH 6.8 aqueous buffer by UV absorbance method

physchem [7] = conditions: PAMPA, pH 7.4
Description: Permeability of the compound at 10 uM at pH 7.4 after 3 hrs by PAMPA

[8] = molecular target: T1, U5 small nuclear ribonucleoprotein 200 kDa helicase; experiment: biochemical; remark: listed apart in the source

Sequence of Eukaryotic initiation factor 4A-III (P38919 whole entry): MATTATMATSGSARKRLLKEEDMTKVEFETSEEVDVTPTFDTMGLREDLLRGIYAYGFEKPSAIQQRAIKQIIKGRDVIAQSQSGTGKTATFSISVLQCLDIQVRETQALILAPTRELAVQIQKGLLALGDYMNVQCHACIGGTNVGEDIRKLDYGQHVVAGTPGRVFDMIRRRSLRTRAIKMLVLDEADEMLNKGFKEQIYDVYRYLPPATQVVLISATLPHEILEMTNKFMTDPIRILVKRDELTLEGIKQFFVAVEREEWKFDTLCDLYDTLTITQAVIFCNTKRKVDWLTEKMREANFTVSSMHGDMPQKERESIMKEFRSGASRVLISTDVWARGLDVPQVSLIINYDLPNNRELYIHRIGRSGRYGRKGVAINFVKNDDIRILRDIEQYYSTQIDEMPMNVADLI
Sequence of Eukaryotic initiation factor 4A-I (P60842 whole entry): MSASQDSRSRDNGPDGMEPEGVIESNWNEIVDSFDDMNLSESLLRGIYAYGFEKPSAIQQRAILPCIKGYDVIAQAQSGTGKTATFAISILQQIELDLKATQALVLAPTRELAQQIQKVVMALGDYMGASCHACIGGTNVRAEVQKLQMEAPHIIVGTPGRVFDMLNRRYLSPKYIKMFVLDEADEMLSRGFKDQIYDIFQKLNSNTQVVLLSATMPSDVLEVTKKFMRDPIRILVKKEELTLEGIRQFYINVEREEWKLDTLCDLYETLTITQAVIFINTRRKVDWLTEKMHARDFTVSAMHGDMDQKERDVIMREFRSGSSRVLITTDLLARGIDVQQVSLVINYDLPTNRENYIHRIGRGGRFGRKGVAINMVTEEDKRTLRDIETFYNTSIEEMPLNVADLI
T1 sequence (O75643 whole entry): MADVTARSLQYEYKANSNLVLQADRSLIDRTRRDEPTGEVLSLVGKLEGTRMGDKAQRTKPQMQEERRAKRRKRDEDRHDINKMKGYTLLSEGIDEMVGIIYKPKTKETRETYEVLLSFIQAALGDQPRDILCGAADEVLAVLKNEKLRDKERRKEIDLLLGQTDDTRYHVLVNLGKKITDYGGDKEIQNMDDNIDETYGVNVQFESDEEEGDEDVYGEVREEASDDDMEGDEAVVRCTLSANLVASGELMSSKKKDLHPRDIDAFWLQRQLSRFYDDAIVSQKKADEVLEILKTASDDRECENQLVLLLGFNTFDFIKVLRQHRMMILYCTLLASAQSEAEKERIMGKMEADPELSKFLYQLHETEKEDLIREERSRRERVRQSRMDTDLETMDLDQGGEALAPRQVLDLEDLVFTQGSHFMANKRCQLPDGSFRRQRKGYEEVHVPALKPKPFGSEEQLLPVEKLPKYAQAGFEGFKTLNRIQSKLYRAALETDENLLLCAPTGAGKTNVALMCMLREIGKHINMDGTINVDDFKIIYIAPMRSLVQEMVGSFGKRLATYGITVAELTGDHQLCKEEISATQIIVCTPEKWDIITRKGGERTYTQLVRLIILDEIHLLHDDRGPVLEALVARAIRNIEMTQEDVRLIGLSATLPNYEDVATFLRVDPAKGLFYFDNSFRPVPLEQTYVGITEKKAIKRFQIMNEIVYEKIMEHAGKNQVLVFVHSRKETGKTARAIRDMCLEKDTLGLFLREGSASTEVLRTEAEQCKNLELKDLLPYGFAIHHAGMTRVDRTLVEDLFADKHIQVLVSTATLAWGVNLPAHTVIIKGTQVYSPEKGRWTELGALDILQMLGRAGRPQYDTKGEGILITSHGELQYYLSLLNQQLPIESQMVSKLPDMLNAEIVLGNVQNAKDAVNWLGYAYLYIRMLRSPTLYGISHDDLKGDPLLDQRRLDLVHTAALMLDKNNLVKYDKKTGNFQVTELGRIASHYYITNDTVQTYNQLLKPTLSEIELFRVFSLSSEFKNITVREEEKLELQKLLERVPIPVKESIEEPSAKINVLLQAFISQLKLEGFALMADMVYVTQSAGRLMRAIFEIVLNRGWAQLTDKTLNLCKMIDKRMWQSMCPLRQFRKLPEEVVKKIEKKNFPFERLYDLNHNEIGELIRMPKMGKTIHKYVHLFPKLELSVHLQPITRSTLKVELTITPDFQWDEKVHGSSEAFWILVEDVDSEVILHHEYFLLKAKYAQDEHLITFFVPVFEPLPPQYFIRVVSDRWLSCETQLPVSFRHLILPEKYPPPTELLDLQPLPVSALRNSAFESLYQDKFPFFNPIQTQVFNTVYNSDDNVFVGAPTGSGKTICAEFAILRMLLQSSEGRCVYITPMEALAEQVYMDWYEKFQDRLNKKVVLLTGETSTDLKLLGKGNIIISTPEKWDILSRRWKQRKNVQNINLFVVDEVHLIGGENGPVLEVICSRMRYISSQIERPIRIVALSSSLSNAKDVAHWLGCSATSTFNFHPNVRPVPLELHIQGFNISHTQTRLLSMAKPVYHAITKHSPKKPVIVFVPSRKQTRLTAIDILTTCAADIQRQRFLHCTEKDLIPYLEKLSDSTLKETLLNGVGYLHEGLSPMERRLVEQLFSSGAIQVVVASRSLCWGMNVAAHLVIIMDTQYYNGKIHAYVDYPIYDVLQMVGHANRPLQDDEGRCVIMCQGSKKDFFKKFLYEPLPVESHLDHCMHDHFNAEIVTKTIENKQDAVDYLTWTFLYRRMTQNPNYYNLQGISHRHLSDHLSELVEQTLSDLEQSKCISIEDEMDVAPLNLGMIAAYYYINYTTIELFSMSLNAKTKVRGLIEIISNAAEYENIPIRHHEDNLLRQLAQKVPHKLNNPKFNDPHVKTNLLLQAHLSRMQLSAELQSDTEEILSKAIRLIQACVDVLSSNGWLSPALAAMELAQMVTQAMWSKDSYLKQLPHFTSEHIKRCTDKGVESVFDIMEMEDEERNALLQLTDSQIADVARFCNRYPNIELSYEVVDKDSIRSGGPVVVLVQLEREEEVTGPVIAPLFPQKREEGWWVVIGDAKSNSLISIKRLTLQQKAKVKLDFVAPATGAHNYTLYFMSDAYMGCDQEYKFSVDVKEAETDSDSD

Compound	IC50 [1] [µM]	IC50 [2] [µM]	IC50 [3] [µM]	IC50 [4] [µM]	chromatographic logD (physchem [5])	solubility (physchem [6]) [µg/mL]	Papp at 3 h, 10 µM (physchem [7]) [×10⁻⁶ cm/s]	IC50 [8] [nM]
O=C1Nc2cc(=O)n(Cc3ccccc3)cc2CN1c1cccc(OCc2ccccn2)c1	–	–	–	–	2	69 (≈ 157 µM)	27.3	–
Cc1cc2c(cc1N1Cc3cn(Cc4ccccc4)c(=O)cc3NC1=O)OC(c1ncccc1F)CC2 (racemic)	5.3	> 100	> 100	> 100	–	–	–	–
Cc1cc2c(cc1N1Cc3cn(C)c(=O)cc3NC1=O)OC(c1ncccc1F)CC2 (racemic)	> 100	–	–	–	–	–	–	–
Cc1cc2c(cc1N1Cc3cn(Cc4ccccc4)c(=O)cc3N(C)C1=O)OC(c1ncccc1F)CC2 (racemic)	> 100	–	–	–	–	–	–	–

The remaining compounds from weak to strong by IC50 [1], led by results:

IC50 [1] [µM]	IC50 [2] [µM]	IC50 [3] [µM]	IC50 [4] [µM]	chromatographic logD (physchem [5])	solubility (physchem [6]) [µg/mL]	Papp at 3 h, 10 µM (physchem [7]) [×10⁻⁶ cm/s]	IC50 [8] [nM]	Compound
5.3	58	57	32	–	–	–	–	N=C1/C(=C/c2ccc(-c3cccc(C(=O)O)c3)o2)C(=O)N=C2SC(C3CCCCC3)=NN12
0.18	–	> 100	> 100	1.9	59 (≈ 135 µM)	14.2	–	O=C1Nc2cc(=O)n(Cc3ccccc3)cc2CN1c1cccc(OCc2cccnc2)c1
0.079	> 100	> 100	> 100	1.7	49 (≈ 110 µM)	13.1	1300	O=C1Nc2cc(=O)n(Cc3ccccc3)cc2CN1c1cccc(OCc2cncs2)c1
